Experimental data taken from patent US20130273567A1, “Screening Method for Candidate Agonist Compounds for Adiponectin Receptor I” (priority 2010, published 2013).

Assays:
AMPK = AMPK phosphorylation in C2C12 myocytes (immunoblotting); format: cell-based, mouse; conditions: for effect on adiponectin-induced increase in AMPK phosphorylation: C2C12 myocytes preincubated with 5 mM EGTA 20 min, 50 μM BAPTA-AM 30 min or 10 μM U73122 30 min, then adiponectin 30 μg/ml 5 min
Experimental: (§1) The mouse C2C12 myoblasts were grown in 90% Dulbecco's modified high glucose Eagle's medium containing 10% (v/v) fetal bovine serum. When the cells reached 80% confluent, the myoblasts were induced to differentiate into myocytes by replacing the medium with a low serum differentiation medium (98% Dulbecco's modified high glucose Eagle's medium, 2.5% (v/v) horse serum). The medium was changed daily. The C2C12 cells were transfected by using Pofectamine 2000 (Invitrogen) and following the manufacturer's instructions.

C2C12 myocytes = experiment: Mitochondrial content assay in C2C12 myocytes (mtDNA copy number, MitoTracker Green); format: cell-based, mouse; conditions: C2C12 myocytes preincubated with AraA 0.5 mM 1 hr or STO-609 1 μg/ml 6 hr, then adiponectin 48 hr
Experimental: Mice used were from 8 to 10 week old at the time of the experiment. […] Induction of myogenic differentiation using C2C12 cells was carried out according to the method described in the following document (Nature Med. 8, 1288-1295 (2002)). By day 5, the cells had differentiated into multinucleated contracting myocytes. C2C12 myocytes were used after myogenic differentiation in all experiments.
as §1
(§2) Mitochondrial content assays were carried out as described in the following document (Cell Metab. 4, 75-87 (2006)), with slight modifications. Quantification of the mitochondrial content was conducted by using mtDNA and MitoTracker Green probe (Molecular Probes) according to the method as described in the following document (Obes. Res. 13, 574-581 (2005)). MitoTracker Green probe preferentially accumulates in mitochondria regardless of the mitochondrial membrane potential and provides an accurate assessment of mitochondrial mass. Cells were washed with PBS and after addition of 100 nM MitoTracker Green FM (Molecular Probes), incubated at 37° C. for 30 min. Cells were harvested by using trypsin/EDTA and resuspended in PBS. Fluorescence intensity was detected with excitation and emission wavelengths of 490 and 516 nm, respectively, and the values thus measured were corrected for total protein (mg/ml).

PGC-1α = PGC-1α (Ppargc1a mRNA) expression in C2C12 myocytes; format: cell-based, mouse; conditions: C2C12 myocytes preincubated with AraA 0.5 mM 1 hr, STO-609 1 μg/ml 6 hr or EGTA 5 mM 20 min, then adiponectin 10 μg/ml 1.5 hr
Experimental: Real-time PCR was carried out according to the method described in the following documents (Nature Med. 13, 332-339 2007); Nature 423, 762-769 (2003); J. Biol. Chem. 281, 8748-8755 (2006)). Total RNA was prepared from cells or tissues by using Trizol (Invitrogen) according to the manufacturer's instructions. Quantification of mRNA was conducted using a real-time PCR method (Nature 423, 762-769 (2003)) with slight modifications. The procedures used for immunoblotting are described in the following documents (Nature Med. 7, 941-946 (2001); J. Biol. Chem. 281, 26602-26614 (2006); J. Biol. Chem. 281, 8748-8755 (2006)). The livers or muscles were freeze-clamped in liquid nitrogen in situ (Nature Med. 7, 941-946 (2001); J. Biol. Chem. 281, 26602-26614 (2006); J. Biol. Chem. 281, 8748-8755 (2006)). The mouse C2C12 myoblasts were grown in 90% Dulbecco's modified high glucose Eagle's medium containing 10% (v/v) fetal bovine serum. When the cells reached 80% confluent, the myoblasts were induced to differentiate into myocytes by replacing the medium with a low serum differentiation medium (98% Dulbecco's modified high glucose Eagle's medium, 2.5% (v/v) horse serum). The medium was changed daily. The C2C12 cells were transfected by using Pofectamine 2000 (Invitrogen) and following the manufacturer's instructions.

CaMKI, HDAC5 = experiment: Phosphorylation of CaMKI and HDAC5 in C2C12 myocytes (immunoblotting); format: cell-based, mouse; conditions: 5 mM EGTA
Experimental: as §1

AdipoR1 = target: T1, AdipoR1 (Mus musculus, UniProt Q91VH1); experiment: Calcium imaging in C2C12 myocytes (fura-2); format: cell-based; design: endogenous in cells; host or cells: mouse C2C12 myocytes (differentiated from myoblasts)
T1 sequence (Q91VH1 1-375): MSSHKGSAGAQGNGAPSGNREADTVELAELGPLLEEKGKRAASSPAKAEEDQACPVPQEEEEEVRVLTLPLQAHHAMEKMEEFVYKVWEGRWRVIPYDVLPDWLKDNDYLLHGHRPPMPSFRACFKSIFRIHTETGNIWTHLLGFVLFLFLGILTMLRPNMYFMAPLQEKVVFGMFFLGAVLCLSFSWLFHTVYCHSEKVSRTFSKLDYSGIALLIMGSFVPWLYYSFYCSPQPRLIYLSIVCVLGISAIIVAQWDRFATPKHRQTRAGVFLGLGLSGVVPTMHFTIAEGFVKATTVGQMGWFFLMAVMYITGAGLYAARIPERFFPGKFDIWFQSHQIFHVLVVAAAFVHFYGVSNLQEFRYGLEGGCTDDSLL
Experimental: C212 myocytes cultured on glass base dishes (IWAKI) were treated with 2.5 μM fura-2/AM for 30 min. Fluorescence was measured with an Aquacosmos Calcium Imaging system (Hamamatsu Photonics). Ligands were delivered through the superfusing Ringer's solution (140 mM NaCl, 5.6 mM KCl, 5 mM HEPES, 2.0 mM sodium pyruvate, 1.25 mM KH2PO4, 2.0 mM CaCl2, 2.0 mM MgCl2, 9.4 mM D-glucose (pH 7.4)). For the calcium chelating experiment, EGTA solution (140 mM NaCl, 5.6 mM KCl, 5 mM HEPES, 2.0 mM sodium pyruvate, 1.25 mM KH2PO4, 2.0 mM MgCl2, 5.0 mM EGTA-2Na, 9.4 mM D-glucose (pH 7.4) was used for the bath solution. Fura-2 fluorescence ratios were calibrated to calcium ion signals.

mAdipoR1 = target: T2, mAdipoR1 (Mus musculus, UniProt Q91VH1); experiment: Xenopus oocytes injected with AdipoR1 cRNA, two-electrode voltage clamp recording; format: cell-based; conditions: Xenopus oocytes expressing AdipoR1, 5 mM EGTA
T2 construct: expressed in transfected cells; host or cells: Xenopus oocytes (stage V to VII) injected with cRNA
T2 sequence (Q91VH1 1-375): T1 sequence (Q91VH1 1-375)
Experimental: Stage V to VII oocytes were treated with 2 mg/ml of collagenase S-1 (Nitta gelatin) in calcium ion-free saline solution (82.5 mM NaCl, 2 mM KCl, 1 mM MgCl2, and 5 mM HEPES, pH 7.5) for 1 to 2 hr at room temperature. The resulting oocytes were then microinjected with 50 ng of cRNA for mAdipoR1. The cRNA was synthesized from linearized modified pSPUTK. The injected oocytes were incubated for 3 days at 18° C. in a bath solution (88 mM NaCl, 1 mM KCl, 0.3 mM Ca(NO3)2, 0.4 mM CaCl2, 0.8 mM MgSO4, 2.4 mM NaHCO3, 15 mM HEPES, pH 7.6) supplemented with 10 μg/ml of penicillin and streptomycin.
Whole cell currents were recorded with a two-electrode voltage clamp technique. Intracellular glass electrodes were filled with 3M KCl. Signals were amplified with an OC-725C amplifier (Warner Instruments), low-pass filtered at 50 Hz, and digitized at 1 kHz. A control bath solution contained 115 mM NaCl, 2.5 mM KCl, 1.8 mM CaCl2, and 10 mM HEPES. It was titrated to pH 7.2 with NaOH. A calcium ion free solution containing 1.8 mM BaCl2 instead of CaCl2 was used. The inward current was monitored at a holding potential of −80 mV. Calcium ion activated Cl^− current was monitored by applying 500-mscc depolarizing pulses of +100 mV and +50 mV from the holding potential of −80 mV. Adiponectin was supplied to the superfusing bath solution via a silicon tube connected to computer-driven solenoid valves. Data acquisition and analysis were carried out using Digidata 1322A and pCLAMP software.

muscle-R1KO mice [1] = experiment: Treatment of muscle-R1KO mice with AICAR, resveratrol or MnTBAP; format: in vivo; conditions: for citrate synthase activities in muscle / insulin resistance / mitochondrial content in muscle: AICAR 500, resveratrol 400, MnTBAP 10 mg per kg body weight per day
Experimental: Oral glucose tolerance test (OGTT) and insulin tolerance test (ITT) were conducted by the method described in the following documents (Nature Med. 8, 1288-1295 (2002); Nature Med. 7, 941-946 (2001)), with some modifications. The areas of the glucose and insulin curves were calculated, respectively, by multiplying the cumulative mean height of the glucose values (1 mg/ml=1 cm) and insulin values (1 ng/ml=1 cm) by time (60 min=1 cm) (Nature Med. 13, 332-339 (2007); Nature Med. 7, 941-946 (2001)). The insulin resistance index was calculated from the product of the areas of glucose and insulin×10^−2 in the glucose tolerance test. The results were expressed as the percentage of the value of control littermates.

muscle-R1KO mice [2] = experiment: Increased calcium influx experiment (Bay-K 8644 gelatin hydrogel) in muscle-R1KO mice; format: in vivo; conditions: 0.25 μM Bay-K 8644
Experimental: as §2
Citrate synthase activity was determined from the homogeneates by using a spectrophotometer according to the method described in the following documents (Cell Metab. 4, 75-87 (2006); Eur. J. Biochem. 10, 198-206 (1969); Obes Res 13, 574-581 (2005)). The citrate synthase activity was measured at 37° C. in 0.1M Tris-HCl (pH 8.3) assay buffer containing 0.12 mM 5,5′-dithio-bis(2-nitrobenzoic acid) and 0.6 mM oxaloacetate. After recording of absorbance at 412 nm in the first two minutes, the reaction was started with the addition of 3 mM acetyl-CoA and a change in absorbance was measured every 10 sec for 7 min.
Hydrogels were prepared by crosslinking aqueous gelatin solutions with glutaraldehyde according to the method described in the following document (J. Control Release 64, 133-142 (2000)). For incorporating Bay-K 8644 into the resulting gelatin hydrogels, 20 μl of Bay-K 8644 (0.25 μM) was added dropwise onto 20 mg of freeze-dried hydrogel and left it overnight at 4° C. Under anesthesia, the gelatin hydrogel having Bay-K 8644 incorporated therein was implanted under the skin. Then, the skin was carefully sutured with No. 4-0 nylon monofilament.

Compound: CC(=O)OCOC(=O)CN(CC(=O)OCOC(C)=O)c1ccccc1OCCOc1ccccc1N(CC(=O)OCOC(C)=O)CC(=O)OCOC(C)=O [BAPTA-AM, Bis-(o-aminophenoxy)ethane-N,N,N9,N9-tetra-acetic acid, tetraacetoxymethyl ester]
- effect on adiponectin-induced increase in AMPK phosphorylation (AMPK): partially suppressed

Compound: Nc1ncnc2c1ncn2[C@@H]1O[C@H](CO)[C@@H](O)[C@@H]1O [AraA]
- effect on adiponectin-induced increase in mitochondrial biogenesis (C2C12 myocytes): almost completely abolished
- effect on PGC-1α expression induced by adiponectin (PGC-1α): only tended to decrease

Compound: O=C(O)CN(CCOCCOCCN(CC(=O)O)CC(=O)O)CC(=O)O [EGTA]
- effect on increased CaMKI phosphorylation stimulated with adiponectin (CaMKI, HDAC5): almost completely abolished
- effect on PGC-1α expression induced by adiponectin (PGC-1α): effectively and almost completely abolished
- effect on adiponectin-induced calcium ion response (AdipoR1; 5 mM EGTA (removal of extracellular free calcium ions)): almost completely abolished
- effect on ATP-induced intracellular calcium ion release (AdipoR1; EGTA): had no effect
- effect on adiponectin-induced inward current responses (mAdipoR1): almost completely abolishes
- effect on calcium-ion activated Cl- current responses to adiponectin (mAdipoR1): almost completely abolished
- effect on adiponectin-induced increase in AMPK phosphorylation (AMPK): partially suppressed
- effect on phosphorylation of AMPK induced by AICAR (AMPK; C2C12 myocytes, 5 mM EGTA, AICAR 1 mM 1 hr): had no effect
- effect on ionomycin-dependent phosphorylation of AMPK (AMPK; C2C12 myocytes, 5 mM EGTA, ionomycin 1 μM): almost completely abolished

Compound: O=C(O)c1ccc2c3c1cccc3c(=O)n1c3ccccc3nc21 [STO-609]
- effect on adiponectin-induced increase in mitochondrial biogenesis (C2C12 myocytes): almost completely abolished
- effect on PGC-1α expression induced by adiponectin (PGC-1α): effectively and almost completely abolished

Compound: O=C(O)c1ccc(/C2=C3\C=CC(=N3)/C(c3ccc(C(=O)O)cc3)=c3/cc/c4[n]3[Mn]([Cl])[n]3c2ccc3/C(c2ccc(C(=O)O)cc2)=C2/C=CC(=N2)\C=4c2ccc(C(=O)O)cc2)cc1 [MnTBAP]
- ROS such as H2O2 in skeletal muscle (muscle-R1KO mice [1]; MnTBAP 10 mg per kg body weight per day, 2 weeks): significantly decreased
- citrate synthase activities in muscle (muscle-R1KO mice [1]; muscle-R1KO mice, 2 weeks): failed to significantly increase
- insulin resistance (muscle-R1KO mice [1]; muscle-R1KO mice, 2 weeks): tended to ameliorate
- mitochondrial content in muscle (muscle-R1KO mice [1]; muscle-R1KO mice, 2 weeks): failed to significantly increase

Compound: Oc1ccc(C=Cc2cc(O)cc(O)c2)cc1 [resveratrol]
- citrate synthase activities in muscle (muscle-R1KO mice [1]; muscle-R1KO mice, 2 weeks): increased
- insulin resistance (muscle-R1KO mice [1]; muscle-R1KO mice, 2 weeks): significantly ameliorated
- mitochondrial content in muscle (muscle-R1KO mice [1]; muscle-R1KO mice, 2 weeks): increased

Compound: COc1ccc2c(c1)CC[C@@H]1[C@@H]2CC[C@]2(C)[C@@H](NCCCCCCN3C(=O)C=CC3=O)CC[C@@H]12 [U73122]
- effect on adiponectin-induced increase in AMPK phosphorylation (AMPK): had little effect

Compound: COC(=O)C1=C(C)NC(C)=C([N+](=O)[O-])C1c1ccccc1C(F)(F)F (stereo not shown) [Bay-K 8644]
- CaMKKβ activity (phosphorylation of CaMKI) in skeletal muscle (muscle-R1KO mice [2]): increase
- citrate synthase activities in muscle (muscle-R1KO mice [2]): significantly enhanced
- insulin-stimulated phosphorylation of Akt in muscle (muscle-R1KO mice [2]): significantly enhanced
- mitochondrial content in muscle (muscle-R1KO mice [2]): significantly enhanced

Compound: NC(=O)c1ncn([C@@H]2O[C@H](CO)[C@@H](O)[C@H]2O)c1N [AICAR, 5-aminoimidazole-4-carboxamide-1-β-D-libocide]
- citrate synthase activities in muscle (muscle-R1KO mice [1]; muscle-R1KO mice, 2 weeks): increased
- insulin resistance (muscle-R1KO mice [1]; muscle-R1KO mice, 2 weeks): significantly ameliorated
- mitochondrial content in muscle (muscle-R1KO mice [1]; muscle-R1KO mice, 2 weeks): increased
- rescue of the AdipoR1 loss in muscle (muscle-R1KO mice [1]; muscle-R1KO mice, AICAR 500 mg per kg body weight per day, 2 weeks): significantly but partially rescued
- phosphorylation of AMPK in muscle (muscle-R1KO mice [1]; muscle-R1KO mice, AICAR 500 mg per kg body weight per day, 2 hours): significantly increased
